Data published in patent publication US10583137B2, “Triazole DAGLα inhibitors” (THE SCRIPPS RESEARCH INSTITUTE, priority 2015, dated 2020).
Like-named read-outs stand apart in the source and are kept apart here.

Tests used:
[1] = system: LPS-induced neuroinflammatory responses (brain lipids, cytokines, body temperature); test: LPS-induced neuroinflammatory responses in mouse brain; format: in vivo; conditions: mice; for LPS-induced elevation in brain 2-AG / LPS-induced elevation in brain PGE2 / LPS-stimulated brain cytokines: 50 mg/kg i.p. 60-90 min before LPS 20 mg/kg i.p., 6 hr; for LPS-induced anapyrexia: 50 mg/kg i.p. before LPS; for brain 2-AG under basal control conditions / brain AA under basal control conditions / brain PGE2 under basal control conditions: 50 mg/kg i.p., no LPS
Experimental: The effects of pharmacological and genetic inactivation of DAGL activity on neuroinflammatory responses (brain prostaglandin and cytokine production) induced by high-dose lipopolysaccharide treatment was examined.
Mice were treated with compounds 14, 17, control compound 22 or vehicle (50 mg/kg, i.p) for 60-90 min, followed by LPS (20 mg/kg, i.p., 6 hr) or vehicle. The mice were subsequently sacrificed and their brain lipid and cytokine profiles analyzed. […] The LPS-induced elevations in both 2-AG and PGE2 were suppressed in compound 14 and compound 17 treated mice and DAGLα/mice, but not compound 22 treated mice. […] LPS-induced anapyrexia was blunted in compound 14 and 17 treated mice (FIG. 8E) and DAGLα−/− mice (FIG. 8F), but not compound 22 treated mice (FIG. 8E).

[2] = system: DSI at CA1 pyramidal neuron synapses; test: depolarization-induced suppression of inhibition (DSI) in hippocampal slices; conditions: bath application 30 min
Experimental: DSI was evaluated at CA1 pyramidal neuron synapses in hippocampal slices. DSI was induced in vehicle-treated hippocampal slices by applying a brief depolarization while evoking […] through stimulation of synaptic inhibitory inputs (FIG. 7C). Bath application of compound 14 (10 μM) and compound 17 (1 μM), but not compound 22 (10 μM), for 30 min before starting electrophysiological recordings blocked hippocampal DSI (FIGS. 7C and D).

[3] = target: DAGLβ (Mus musculus (Mouse), UniProt Q91WC9); test: in vivo ABPP coupled to quantitative mass spectrometry (FP-biotin, ReDiMe); conditions: brain proteomes of treated mice
Experimental: (§1) The extent of these target profiles were confirmed by performing ABPP coupled to high-resolution, quantitative mass spectrometry (MS). Briefly, brain proteomes from compound and vehicle-treated mice were incubated with the serine hydrolase directed activity-based probe FP-biotin, and probe-labeled enzymes were enriched by streptavidin chromatography, digested on bead with trypsin, and the resulting tryptic peptides modified by reductive dimethylation (ReDiMe) of lysine residues using isotopically heavy and light formaldehyde, respectively. In these experiments, inhibited serine hydrolases are identified as enzymes showing low heavy/light ReDiMe ratios.

[4] = target: CES1C (Mus musculus (Mouse), UniProt P23953); test: as above; conditions: brain proteomes of treated mice
Experimental: as §1

[5] = target: DAGLα (Mus musculus (Mouse), UniProt Q6WQJ1); test: as above; conditions: brain proteomes of treated mice
Experimental: as §1

[6] = target: ABHD6 (Mus musculus (Mouse), UniProt Q8R2Y0); test: as above; conditions: brain proteomes of treated mice
Experimental: as §1

[7] = system: serine hydrolases; test: ABPP selectivity against serine hydrolases in mouse brain proteome; format: biochemical
Experimental: Compounds 14 and 17 were evaluated for activity and selectivity against endogenous DAGLs and other serine hydrolases in the mouse brain proteome using a ABPP of mouse brain proteome assay as described in Example 16. These experiments were performed using three different activity-based probesprobe compound 58 (targets DAGLα and DAGLβ), HT-01 (targets DAGLα and DAGLβ), and FP-Rh (broad-spectrum serine hydrolase-directed probe fluorophosphonate-rhodamine).
(§2) Data represent average values±SEM; n=3 per group. […] Compounds 14 and 17 had minimal and negligible binding, respectively, to cannabinoid CB1 (CB1R) and CB2 (CB2R) receptors as measured with a radioligand binding assay (IC50 values>1 μM) (data not shown).
The selectivity of compounds 14 and 17 for additional serine hydrolases was assessed using probe FP-Rh (0.5 μM, 20 min; data not shown). Representative mouse brain serine hydrolases detected by FP-Rh were FAAH, MAGL, and ABHD6.

[8] = target: cannabinoid CB1 (CB1R) receptor (Homo sapiens (Human), UniProt P21554); test: radioligand binding assay
Experimental: as §2

[9] = system: DAGLs; test: time-course of DAGL inhibition and recovery in mice, competitive ABPP with compound 58 probe; format: in vivo, mouse; conditions: 50 mg/kg
Experimental: Inhibition of DAGL in mice with DAGL compounds 14 and 17 was investigated as a function of time as determined by competitive ABPP using the compound 58 probe (1 μM, 30 min).

[10] = target: recombinant human DAGLβ (Homo sapiens (Human), UniProt Q8NCG7); test: SAG substrate assay (in vitro inhibition of 2-AG biosynthesis), membrane lysates from HEK293T cells; format: biochemical
Experimental: (§3) DAGL modulators were tested for in vitro inhibition of 2-AG biosynthesis using a 1-stearoyl-2-arachidonoyl-sn-glycerol (SAG) substrate assay in DAGL-transfected HEK293 cells.
(§4) The SAG substrate assay, as described in Journal of lipid research 56(4):927-935, was performed using the following assay conditions: 0.2 U/mL glycerol kinase (GK), glycerol-3-phosphate oxidase (GPO) and horseradish peroxidase (HRP), 0.125 mM ATP, 10 μM Amplifu™Red, 5% DMSO in a total volume of 200 μL. The assay additionally contained SAG, a DAGL modulator, and membrane lysates from HEK293T cells expressing recombinant human DAGLα or DAGLβ.
(§5) Membranes were prepared from HEK293T cells transiently transfected with DAGLα or DAGLβ plasmids encoding for full length DAGLα or DAGLβ, respectively (Angewandte Chemie 52(46):12081-12085; Journal of Medicinal Chemistry 57(15):6610-6622). Briefly, one day prior to transfection, 10^7 cells were seeded in a 15 cm petri dish. The seeded cells were transfected by the addition of a 3:1 mixture of polyethyleneimine (60 μg) and plasmid DNA (20 μg) in 2 mL serum free medium. The medium was refreshed after 24 hr, and after 72 hr the cells were harvested by suspending them in 20 mL medium. The suspension was centrifuged for 10 min at 1000 rpm, and the supernatant was removed. The cell pellet was stored at −80° C. until use. Cell pellets were thawed on ice and suspended in lysis buffer A (20 mM HEPES, 2 mM DTT, 0.25 M sucrose, 1 mM MgCl2, lx protease inhibitor cocktail (Roche cOmplete EDTA free), 25 U/μL Benzonase). The suspension was homogenized by polytrone (3×7 sec) and incubated for 30 min on ice. The suspension was subjected to ultracentrifugation (100,000×g, 30 min, 4° C., Beckman Coulter, Type Ti70 rotor) to yield the cytosolic fraction in the supernatant and the membrane fraction as a pellet. The pellet was resuspended in lysis buffer B (20 mM HEPES, 2 mM DTT, lx protease inhibitor cocktail (Roche cOmplete EDTA free)) and the protein concentration determined with Quick Start Bradford assay (Biorad). The protein fractions were diluted to a total protein concentration of 1 mg/mL and stored in small aliquots at −80° C. until use.

[11] = target: recombinant human DAGLα (Homo sapiens (Human), UniProt Q9Y4D2); test: as above; format: biochemical; conditions: n=4, read-out: IC50, DAGLα conversion of SAG to 2-AG
Experimental: as §3, §4, §5

Chain of recombinant human DAGLβ (Q8NCG7 whole entry): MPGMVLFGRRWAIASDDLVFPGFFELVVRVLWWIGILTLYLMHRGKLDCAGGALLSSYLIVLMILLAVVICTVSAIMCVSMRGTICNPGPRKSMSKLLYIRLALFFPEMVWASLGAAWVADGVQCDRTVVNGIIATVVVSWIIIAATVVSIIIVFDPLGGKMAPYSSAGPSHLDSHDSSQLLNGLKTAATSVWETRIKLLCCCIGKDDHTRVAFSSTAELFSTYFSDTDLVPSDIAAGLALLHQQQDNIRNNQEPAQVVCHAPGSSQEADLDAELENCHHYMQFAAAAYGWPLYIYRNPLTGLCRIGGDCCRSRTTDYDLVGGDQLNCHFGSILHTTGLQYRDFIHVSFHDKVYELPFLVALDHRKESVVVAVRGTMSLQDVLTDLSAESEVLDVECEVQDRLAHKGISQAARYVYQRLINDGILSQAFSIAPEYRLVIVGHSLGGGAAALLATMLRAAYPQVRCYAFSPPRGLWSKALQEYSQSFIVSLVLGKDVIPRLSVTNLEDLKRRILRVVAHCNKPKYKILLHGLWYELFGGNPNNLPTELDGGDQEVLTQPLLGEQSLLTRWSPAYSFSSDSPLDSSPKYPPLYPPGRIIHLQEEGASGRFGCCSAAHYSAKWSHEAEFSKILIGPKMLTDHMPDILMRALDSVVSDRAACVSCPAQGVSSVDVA
Chain of recombinant human DAGLα (Q9Y4D2 whole entry): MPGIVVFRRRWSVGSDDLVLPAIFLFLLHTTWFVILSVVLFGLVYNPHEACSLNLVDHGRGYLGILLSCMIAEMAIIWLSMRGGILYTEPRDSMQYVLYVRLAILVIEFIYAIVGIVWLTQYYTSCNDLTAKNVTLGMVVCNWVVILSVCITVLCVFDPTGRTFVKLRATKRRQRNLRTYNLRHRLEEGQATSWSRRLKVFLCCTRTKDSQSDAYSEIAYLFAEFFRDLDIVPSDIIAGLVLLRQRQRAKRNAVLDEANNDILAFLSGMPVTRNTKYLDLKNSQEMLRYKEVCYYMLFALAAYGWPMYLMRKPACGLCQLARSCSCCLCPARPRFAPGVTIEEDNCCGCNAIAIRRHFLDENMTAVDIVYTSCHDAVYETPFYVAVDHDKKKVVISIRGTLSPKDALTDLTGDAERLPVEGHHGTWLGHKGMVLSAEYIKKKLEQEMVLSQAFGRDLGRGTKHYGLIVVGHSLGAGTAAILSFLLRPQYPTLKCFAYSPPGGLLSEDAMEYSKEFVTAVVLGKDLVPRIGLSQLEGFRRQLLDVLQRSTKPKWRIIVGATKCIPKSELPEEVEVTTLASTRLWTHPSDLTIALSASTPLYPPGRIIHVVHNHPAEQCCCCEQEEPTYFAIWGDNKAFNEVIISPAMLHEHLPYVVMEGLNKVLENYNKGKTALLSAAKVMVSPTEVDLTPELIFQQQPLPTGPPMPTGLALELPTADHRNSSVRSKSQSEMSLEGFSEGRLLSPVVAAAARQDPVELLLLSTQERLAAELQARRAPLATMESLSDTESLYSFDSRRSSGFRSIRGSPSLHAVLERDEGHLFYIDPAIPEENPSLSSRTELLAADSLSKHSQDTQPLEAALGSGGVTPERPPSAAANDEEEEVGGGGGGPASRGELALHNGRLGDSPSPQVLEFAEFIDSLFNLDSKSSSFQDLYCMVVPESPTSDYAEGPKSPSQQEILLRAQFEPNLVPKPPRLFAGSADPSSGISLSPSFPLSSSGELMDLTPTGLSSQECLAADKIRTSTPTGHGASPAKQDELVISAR
Chain of DAGLβ (Q91WC9 whole entry): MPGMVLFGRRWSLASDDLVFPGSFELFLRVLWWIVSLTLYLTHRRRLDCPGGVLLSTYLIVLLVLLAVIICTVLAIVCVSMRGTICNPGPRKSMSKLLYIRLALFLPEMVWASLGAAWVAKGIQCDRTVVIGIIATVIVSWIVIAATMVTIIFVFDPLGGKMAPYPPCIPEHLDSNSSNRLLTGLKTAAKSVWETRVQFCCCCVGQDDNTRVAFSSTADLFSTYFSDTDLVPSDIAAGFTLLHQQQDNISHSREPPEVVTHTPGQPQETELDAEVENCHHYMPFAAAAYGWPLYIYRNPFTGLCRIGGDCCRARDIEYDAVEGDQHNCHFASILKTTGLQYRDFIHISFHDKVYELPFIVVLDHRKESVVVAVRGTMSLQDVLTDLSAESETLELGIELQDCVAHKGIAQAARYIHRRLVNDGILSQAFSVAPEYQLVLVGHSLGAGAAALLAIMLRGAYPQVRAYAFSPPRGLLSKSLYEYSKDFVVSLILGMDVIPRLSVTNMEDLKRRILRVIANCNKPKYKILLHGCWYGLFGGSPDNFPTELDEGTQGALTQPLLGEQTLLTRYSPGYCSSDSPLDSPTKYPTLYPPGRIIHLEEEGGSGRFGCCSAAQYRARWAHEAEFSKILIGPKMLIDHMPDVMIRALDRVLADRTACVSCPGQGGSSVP
Chain of ABHD6 (Q8R2Y0 whole entry): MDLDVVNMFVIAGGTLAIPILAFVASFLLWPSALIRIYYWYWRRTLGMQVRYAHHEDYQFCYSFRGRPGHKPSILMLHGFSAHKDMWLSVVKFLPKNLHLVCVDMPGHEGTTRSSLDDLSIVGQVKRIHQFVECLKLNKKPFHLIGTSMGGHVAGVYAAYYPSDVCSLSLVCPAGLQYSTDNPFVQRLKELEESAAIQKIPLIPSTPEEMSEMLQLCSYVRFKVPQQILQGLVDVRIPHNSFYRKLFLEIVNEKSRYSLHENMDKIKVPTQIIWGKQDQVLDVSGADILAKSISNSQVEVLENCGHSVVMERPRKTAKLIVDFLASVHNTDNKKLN
Chain of CES1C (P23953 19-554): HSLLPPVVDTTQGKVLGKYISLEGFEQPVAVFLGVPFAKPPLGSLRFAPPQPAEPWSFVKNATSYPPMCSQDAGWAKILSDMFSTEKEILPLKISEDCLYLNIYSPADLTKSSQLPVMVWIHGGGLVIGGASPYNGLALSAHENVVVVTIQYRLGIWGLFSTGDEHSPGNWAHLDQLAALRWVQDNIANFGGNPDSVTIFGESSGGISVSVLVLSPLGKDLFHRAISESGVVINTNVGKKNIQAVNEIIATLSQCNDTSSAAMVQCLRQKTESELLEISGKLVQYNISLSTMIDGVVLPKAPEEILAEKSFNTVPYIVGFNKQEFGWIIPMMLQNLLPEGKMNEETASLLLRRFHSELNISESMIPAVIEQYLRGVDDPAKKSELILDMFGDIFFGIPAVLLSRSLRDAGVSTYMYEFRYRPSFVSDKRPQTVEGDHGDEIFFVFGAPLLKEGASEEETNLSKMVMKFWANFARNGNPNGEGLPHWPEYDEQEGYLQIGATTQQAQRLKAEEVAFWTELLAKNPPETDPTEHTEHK
Chain of cannabinoid CB1 (CB1R) receptor (P21554 whole entry): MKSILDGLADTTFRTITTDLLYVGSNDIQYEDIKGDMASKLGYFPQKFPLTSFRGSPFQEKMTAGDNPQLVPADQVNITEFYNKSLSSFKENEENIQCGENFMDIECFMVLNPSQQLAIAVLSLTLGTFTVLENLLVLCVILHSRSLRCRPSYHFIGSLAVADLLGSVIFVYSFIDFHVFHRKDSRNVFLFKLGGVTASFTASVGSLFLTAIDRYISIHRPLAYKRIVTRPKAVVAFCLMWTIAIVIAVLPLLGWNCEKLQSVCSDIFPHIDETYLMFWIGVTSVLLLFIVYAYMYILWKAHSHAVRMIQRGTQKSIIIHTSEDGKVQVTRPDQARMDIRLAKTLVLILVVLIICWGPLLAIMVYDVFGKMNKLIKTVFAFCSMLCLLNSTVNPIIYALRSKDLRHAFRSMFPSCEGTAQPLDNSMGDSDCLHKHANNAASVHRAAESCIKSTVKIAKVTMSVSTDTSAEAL
Chain of DAGLα (Q6WQJ1 whole entry): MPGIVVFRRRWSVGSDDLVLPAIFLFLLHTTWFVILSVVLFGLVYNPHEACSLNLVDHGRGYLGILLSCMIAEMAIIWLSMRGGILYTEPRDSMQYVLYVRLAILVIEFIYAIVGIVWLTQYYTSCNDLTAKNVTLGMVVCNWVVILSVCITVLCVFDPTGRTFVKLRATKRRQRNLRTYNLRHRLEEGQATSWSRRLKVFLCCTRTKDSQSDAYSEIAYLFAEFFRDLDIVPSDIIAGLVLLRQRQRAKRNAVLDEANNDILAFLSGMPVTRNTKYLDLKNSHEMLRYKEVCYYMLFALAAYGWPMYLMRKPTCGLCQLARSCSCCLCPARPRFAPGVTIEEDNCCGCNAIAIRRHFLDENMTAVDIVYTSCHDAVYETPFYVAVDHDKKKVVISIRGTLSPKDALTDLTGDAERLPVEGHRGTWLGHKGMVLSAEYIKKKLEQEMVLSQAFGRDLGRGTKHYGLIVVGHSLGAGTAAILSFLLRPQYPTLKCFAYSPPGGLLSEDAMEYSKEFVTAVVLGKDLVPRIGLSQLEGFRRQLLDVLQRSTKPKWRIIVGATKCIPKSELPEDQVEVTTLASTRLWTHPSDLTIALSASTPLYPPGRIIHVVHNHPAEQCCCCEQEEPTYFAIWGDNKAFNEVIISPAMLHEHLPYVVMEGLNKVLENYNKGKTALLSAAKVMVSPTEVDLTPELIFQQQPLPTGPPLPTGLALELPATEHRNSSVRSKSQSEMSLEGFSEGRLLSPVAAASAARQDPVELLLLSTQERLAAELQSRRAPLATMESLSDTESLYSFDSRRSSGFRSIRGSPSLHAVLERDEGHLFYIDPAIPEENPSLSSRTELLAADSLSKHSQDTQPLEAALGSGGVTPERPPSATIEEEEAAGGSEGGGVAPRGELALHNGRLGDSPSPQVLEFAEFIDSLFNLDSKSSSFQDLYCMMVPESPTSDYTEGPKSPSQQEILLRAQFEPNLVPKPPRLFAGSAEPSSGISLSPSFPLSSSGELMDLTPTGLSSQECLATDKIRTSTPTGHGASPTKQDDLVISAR

SMILES	LPS-induced elevation in brain 2-AG [1]	LPS-induced elevation in brain PGE2 [1]	LPS-stimulated brain cytokines [1]	LPS-induced anapyrexia [1]	brain 2-AG under basal control conditions [1]	brain AA under basal control conditions [1]	brain PGE2 under basal control conditions [1]	effect on hippocampal DSI ([2]; 10 μM)	inhibition of DAGLβ by quantitative MS [3]	heavy/light ReDiMe ratio, CES1C (off-target) [4]	inhibition of DAGLα by quantitative MS [5]	heavy/light ReDiMe ratio, ABHD6 (off-target) [6]	selectivity, detectable serine hydrolase off-targets [7]	IC50 [8] [nM]	duration of sustained inhibition of DAGLs [9]	DAGL activity at 24-hr post dosing [9]	IC50 [10] [nM]	IC50 [11] [nM]	effect on hippocampal DSI ([2]; 1 μM)	IC50 ([8]; radioligand binding assay, read-out: IC50, CB1R binding) [nM]
C#CCO[C@@H]1CC[C@H](Cc2ccccc2)N(C(=O)n2ncc(C(O)(c3ccc(F)cc3)c3ccc(F)cc3)n2)C1 [Compound 14, ((2R,5R)-2-Benzyl-5-(prop-2-ynyloxy)piperidin-1-yl)(4-(bis(4-fluorophenyl)(hydroxy)methyl)-2H-1,2,3-triazol-2-yl)methanone]	suppressed	suppressed	reductions	blunted	severely depleted	severely depleted	severely depleted	blocked	strongly	< 0.5	complete inhibition	< 0.5	selective for DAGLs, with the only detectable serine hydrolase off-targets being ABHD6 and PLA2G7	> 1000	up to 8 hr	partial recovery	3 to 8	6	–	–
CC(C)(C)OC(=O)N1CCN(C(=O)n2cc(-c3ccc(OC(F)(F)F)cc3)nn2)C(Cc2ccccc2)C1 (stereo not drawn) [Compound 17, tert-Butyl 3-benzyl-4-(4-(4-(trifluoromethoxy)phenyl)-1H-1,2,3-triazole-1-carbonyl)piperazine-1-carboxylate]	suppressed	suppressed	reductions	blunted	severely depleted	severely depleted	severely depleted	–	partially	< 0.5	complete inhibition	< 0.5	selective for DAGLs, with the only detectable serine hydrolase off-targets being ABHD6 and PLA2G7	–	up to 8 hr	partial recovery	3 to 8	6	blocked	> 1000
